The nature of data set [1]: Pharmacokinetic assay in Balb/c mice (plasma and brain tissue). The note with it: male, mouse, po, p.o. 5 mg/kg; for AUC(0-t): read-out: Area under curve AUC0-t; for Tmax: read-out: Peak time tmax; for Cmax: read-out: Plasma concentration Cmax. The class given is in vivo. As for the experimental part:
Balb/c mice were used as test animals. The pharmacokinetic behavior in mouse body (plasma and brain tissue) of the compounds of Examples of the present invention orally administrated at a dose of 5 mg/kg was studied.
Male Balb/c mice (12 mice per group), purchased from Shanghai Jiesijie Laboratory Animal Co., LTD, with Certificate No.: SCXK (Shanghai) 2013-0006 N0.311620400001794.
The test compound was dissolved in 0.5% CMC-Na (1% Tween80) by sonication to formulate a clear solution or homogeneous suspension.
After an overnight fast, male Balb/c mice (12 mice per group) were administered p.o. with the test compound at an administration dose of 5 mg/kg and an administration volume of 10 mL/kg.
0.2 mL of blood was taken from the heart of the mouse before administration and at 1, 2, 4, 8 and 24 hours after administration, and the mice were sacrificed with CO2. The samples were stored in EDTA-K2 tubes, and centrifuged for 6 minutes at 4° C., 6000 rpm to separate the plasma. The plasma samples were stored at −80° C. Whole brain tissue was taken out, weighed, placed in a 2 mL centrifuge tube, and stored at −80° C.
• 1) 160 μL of acetonitrile was added to 40 μL of the plasma sample for precipitation, and then the mixture was centrifuged for 5 to 20 minutes at 3500×g. • 2) 90 μL of acetonitrile containing internal standard (100 ng/mL) was added to 30 µL of the plasma and brain homogenate sample for precipitation, and then the mixture was centrifuged for 8 minutes at 13000 rpm. • 3) 70 μL of water was added to 70 μL of the treated supernatant and mixed by vortex for 10 minutes. 20 μL of the supernatant was taken to analyze the concentration of the test compound by LC/MS/MS. LC/MS/MS analytical instrument: AB Sciex API 4000 Qtrap. 2.7 Liquid Chromatography Analysis: • Liquid chromatography condition: Shimadzu LC-20AD pump • Chromatographic column: Agilent ZORBAX XDB-C18 (50×2.1 mm, 3.5 m); Mobile phase: Eluent A was 0.1% formic acid in water, and Eluent B was acetonitrile • Flow rate: 0.4 mL/min • Elution time: 0-4.0 minutes, the eluent is as follows:
The main parameters of pharmacokinetics were calculated by WinNonlin 6.1.

Data set [2] in a line: Stability in human liver microsome in vitro. The class given is in vitro ADME. Here is the method: (§1) To evaluate the metabolic stability of the compounds of the present invention in liver microsome in vitro.
(§2) Formulation of the working solution of the compound: 2 μL of the stock solution of the compound was added to 998 μL of phosphate buffer, and the final concentration was 20 μM.
(§3) 78.1 μL of 20 mg/mL microsome was diluted to 2.5 mL with 100 mM phosphate buffer and mixed well, and the final concentration was 0.625 mg/mL.
(§4) 33.3 mg of NADPH and 25.8 mg of UDPGA were weighed respectively, followed by the addition of 2 mL of 100 mM phosphate buffer. The final concentrations were 20 mM.
(§5) 1 mg of Alamethicin was weighed, to which 200 μL of DMSO was added to obtain a 5 mg/mL solution. 10 μL of this solution was added to 990 μL of phosphate buffer (pH 7.4), and the final concentration was 50 μg/mL.
(§6) 400 μL of the formulated liver microsome, 25 μL of the working solution of the compound (10 μM) and 25 μL of Alamethicin (50 μg/mL) were added to a 96-well plate successively, which was then pre-incubated at 37° C. for 10 min. 50 μL of the formulated NADPH/UDPGA was added to initiate the reaction, and the plate was incubated at 37° C. The total volume of the reaction system was 500 μL. The final contents of the components are as follows:
(§7) […] The resulting sample was centrifuged at 4000 g for 10 min, and the supernatant was collected for LC-MS/MS analysis.
Background: Liver microsomes are vesicles of endoplasmic reticulum, rich in cytochrome P450 enzymes.

A short description of data set [3]: Stability in rat liver microsome in vitro. The class given is in vitro ADME, SD rat. As for the experimental part: as §1, §2, §3, §4, §5, §6, §7
Data set [4] can be described thus: Stability in dog liver microsome in vitro. Format: in vitro ADME. As for the experimental part: as §1, §2, §3, §4, §5, §6, §7
The next data set concerns rats. The data set is described as follows: Pharmacodynamic model of active escape experiment in rats. The note with it: F344 rats, oral dose 1 mg/kg one hour before test; vehicle 91-98%. Format: in vivo. Here is the method:
To evaluate the anti-schizophrenic effect of the compounds using the pharmacodynamic model of the active escape experiment in rats.
A prescription amount of the compound was weighed, followed by the addition of a prescription volume of 0.5% CMC-Na+1% Tween 80 solution. The compound solution was formulated before the administration, stored at 2 to 8° C., and used within 4 days.
5.2 Baseline Test and Grouping
The day before the compound screening test, a baseline test was performed. The test process was the same as 5.1.1 to 5.1.3, and the number of the baseline test was 20. The animals whose number of avoids reached 16 (80%) were grouped according to the number of avoids, 10 animals per group. The first group was administered with the vehicle orally, and the other groups were administered with the corresponding test compounds according to the experimental design.
The compound was administered orally (5 mL/kg) one hour before the test; The test process was the same as 5.1.1 to 5.1.4, and the number of the test was 20.
The following data was collected by the software for data analysis: • Number of avoids of the animal; • Number of escape failures of the animal; • Escape latency of the animal; • All measurement data were expressed as mean±standard error (Mean±SEM), and analyzed by Graphpad 6 statistical software. The difference was considered to be significant when p<0.05. 7.

Experimental findings from patent publication US12617759B2, “Modifier of four-membered ring derivative, preparation method and application thereof” (Shanghai Hansoh Biomedical Co., Ltd., priority 2019, dated 2026) are described below.

Like-named read-outs stand apart in the source and are kept apart here.

Broadly, the Tmax is the time at which the peak concentration occurs. For orientation: MRT means the average time that molecules of a dose stay in the body. Turning to `O=C(N[C@H]1C[C@H](CCN2CCN(c3cccc(Cl)c3Cl)CC2)C1)c1ccon1` [Example 25A, N-(Trans-3-(2-(4-(2,3-dichlorophenyl)piperazin-1-yl)ethyl)cyclobutyl)isoxazole-3-carboxamide], the AUC(0-t) in data set [1] (Brain) was determined as 11900 ng·h/mL; in data set [1] (Plasma) it was 3050 ng·h/mL. Also, the Tmax in data set [1] (Brain) was 1 h; in data set [1] (Plasma), 0.5 h. For the same molecule, the values for the Cmax in data set [1] (Brain) and in data set [1] (Plasma) were 1540 ng/mL and 362 ng/mL, respectively. Besides, the AUC(0-inf) in data set [1] (Plasma, read-out: Area under curve AUC0-∞) turned out to be 12900 ng·h/mL. Moreover, the MRT in data set [1] (Plasma, read-out: Average residence time MRT) was determined as 6.2 h. Further, in data set [1] (Plasma, read-out: Half life t1/2 (converted)), the half-life was 5.6 h. Also, the “Remaining (%, 120 min)” value in data set [2] (120 min) turned out to be 38.8%; in data set [3] (120 min), 27.0%; in data set [4] (120 min), 30.2%. The half-life at 1 μM is 1.5 h in data set [2] (human liver microsomes, pH 7.4, 1 μM compound, NADPH/UDPGA, read-out: Half life (t1/2)); 1.01 h in data set [3] (SD, rat liver microsomes, pH 7.4, 1 μM compound, NADPH/UDPGA, read-out: Half life (t1/2)); 1.16 h in data set [4] (dog liver microsomes, pH 7.4, 1 μM compound, NADPH/UDPGA, read-out: Half life (t1/2)). Also, the microsomal CLint at 1 μM was 15.4 µL/min/mg in data set [2] (human liver microsomes, pH 7.4, 1 μM compound, NADPH/UDPGA, read-out: Intrinsic clearance rate (CLint)); 22.9 µL/min/mg in data set [3] (SD, rat liver microsomes, pH 7.4, 1 μM compound, NADPH/UDPGA, read-out: Intrinsic clearance rate (CLint)); 19.9 µL/min/mg in data set [4] (dog liver microsomes, pH 7.4, 1 μM compound, NADPH/UDPGA, read-out: Intrinsic clearance rate (CLint)). This molecule registered a CAR value in the data set with rats of 18%.
